Assay results taken from patent US20240368159A1, “HPK1 DEGRADERS, COMPOSITIONS COMPRISING THE HPK1 DEGRADER, AND METHODS OF USING THE SAME” (BIOFRONT LTD, priority 2021, published 2024).

Assays:
HPK1 p-SLP-76 = HPK1 p-SLP-76 inhibition assay in human PBMC (HTRF); assay type: cell-based; details: 6 h compound, anti-CD3 stimulation 20 min
Procedure: Human PBMC were purchased from OriCells (FPB004F-C). Before compound treatment, PBMC were starved in PRMI-1640 medium supplemented with 0.5% FBS overnight. The cell density was adjusted to 1*10^7 cells/mL in assay medium (RPMI-1640 no phenol red with 0.5% FBS) and 16 μL cell suspension was transferred per well to a 384-well plate (Corning #3765). 6× solution of test compound was prepared in assay medium and 4 μL was added per well to the 384-well plate. The plate was then incubated at 37° C., 5% CO2 for 6 h. PBMC in 384-well plate were stimulated with anti-CD3 (BD Biosciences #555329, final conc. is 10 ug/mL) for 20 min at 37° C., 5% CO2 by adding 4 μL 6× antibody solution per well. Phospho-SLP76 HTRF kit was purchased from Cisbio (63ADK076PEH). 8 μL 4× Lysis Buffer was added to 384-well plate after anti-CD3 stimulation. The plate was centrifuged at 1,000 rpm for 1 min, shaken at 250 rpm for 60 min and centrifuged again at 1,000 rpm for 5 min. Afterwards the cell lysates were transferred to the assay plate (Greiner #784075) with 16 μL per well. 4 μL detection antibody mix per well prepared in Detection Buffer was added to the assay plate, followed by centrifugation at 1,000 rpm for 1 min and incubation at 25° C. overnight.

HPK1 protein [1] = target: T1, HPK1 protein (Homo sapiens, UniProt Q92918); test: HPK1 enzyme inhibition assay (ADP-Glo); assay type: biochemical; details: MBP substrate, ATP, ADP-Glo readout
T1 construct: purchased Signal Chem M23-11G-10
T1 sequence (Q92918 1-346 limits assumed): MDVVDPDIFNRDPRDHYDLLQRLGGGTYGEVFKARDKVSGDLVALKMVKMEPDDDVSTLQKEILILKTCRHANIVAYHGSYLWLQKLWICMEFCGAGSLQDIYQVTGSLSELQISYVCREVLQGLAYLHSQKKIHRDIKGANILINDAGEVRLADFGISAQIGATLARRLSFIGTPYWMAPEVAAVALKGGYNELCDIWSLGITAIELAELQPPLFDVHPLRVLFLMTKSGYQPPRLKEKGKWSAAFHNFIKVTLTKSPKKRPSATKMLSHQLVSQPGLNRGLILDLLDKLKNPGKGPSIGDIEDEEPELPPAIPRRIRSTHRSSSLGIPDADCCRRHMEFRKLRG
Procedure: The compound was dissolved in 100% DMSO at the concentration of 10 mM. The HPK1 protein was purchased from Signal Chem (M23-11G-10). 2.5 μL per well of 2×HPK1 protein was added to assay plate containing the test compound, centrifuged at 1500 rpm for 1 minute, and then incubated at 25° C. for 60 minutes. MBP protein was purchased from Signal Chem (M42-51N) and ATP was purchased from Promega (V9102). The two were added 2.5 μL per well mixture of 2×MBP (0.2 ug/ul) and ATP (20 μM), centrifuged at 1500 rpm for 1 minute, then incubated at 25° C. for 60 minutes. Then added 5 μL of ADP-Glo from Promega (V9102) to the assay plate and depleted the unconsumed ATP for 60 minutes. Then centrifuged at 1500 rpm for 1 minute and incubated at 25° C. for 60 minutes. Finally, 10 μL of the kinase assay reagent from Promega (V9102) was added to the assay plate to convert ADP to ATP, centrifuged at 1500 rpm for 1 minute, incubate at 25° C. for 40 minutes. After 40 minutes incubation, the […] was determined. Based on the results, the IC50 value of the compound was calculated.

HPK1 protein [2] = target: T2, HPK1 protein (Mus musculus, UniProt P70218); test: HPK1 protein degradation in mouse pan T cell (western blot); assay type: cell-based; details: 18 h incubation
T2 construct: the CD3+ T cell population was isolated from spleenocytes of mice; endogenous in cells; host or cells: primary mouse splenic CD3+ (pan) T cells
T2 sequence (P70218 1-827): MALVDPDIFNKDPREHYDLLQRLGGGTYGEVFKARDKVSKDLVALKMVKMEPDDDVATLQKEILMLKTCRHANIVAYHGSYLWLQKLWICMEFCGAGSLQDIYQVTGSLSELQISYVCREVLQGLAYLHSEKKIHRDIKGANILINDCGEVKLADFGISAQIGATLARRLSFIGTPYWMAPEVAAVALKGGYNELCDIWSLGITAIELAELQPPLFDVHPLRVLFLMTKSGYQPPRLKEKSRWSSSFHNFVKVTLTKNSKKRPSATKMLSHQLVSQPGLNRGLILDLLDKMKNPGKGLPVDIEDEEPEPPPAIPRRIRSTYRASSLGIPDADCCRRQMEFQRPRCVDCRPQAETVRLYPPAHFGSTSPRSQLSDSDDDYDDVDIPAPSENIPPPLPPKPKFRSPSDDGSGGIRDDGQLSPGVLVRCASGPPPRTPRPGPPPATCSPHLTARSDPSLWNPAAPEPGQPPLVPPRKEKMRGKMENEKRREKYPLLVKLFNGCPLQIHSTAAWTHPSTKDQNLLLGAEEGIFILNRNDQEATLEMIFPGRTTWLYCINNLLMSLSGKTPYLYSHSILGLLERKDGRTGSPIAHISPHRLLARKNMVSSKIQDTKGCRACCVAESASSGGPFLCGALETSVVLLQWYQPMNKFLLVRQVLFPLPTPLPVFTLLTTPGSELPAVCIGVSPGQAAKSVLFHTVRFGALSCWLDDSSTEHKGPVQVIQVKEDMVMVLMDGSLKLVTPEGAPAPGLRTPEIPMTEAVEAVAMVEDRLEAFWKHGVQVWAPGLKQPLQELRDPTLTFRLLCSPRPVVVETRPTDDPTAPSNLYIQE
Procedure: HPK1 protein degradation in mouse pan T cell: the CD3+ T cell population was isolated from spleenocytes of mice by using Pan T cell isolation kit from Miltenyi Biotec (130-095-130) following manufacture's instruction. The isolated T cells were then incubated with a variety of concentrations of compound. After incubation for 18 h, the cells were collected and lysed. The protein concentration was determined by BCA protein assay kit from Thermo (23227). The HPK1 protein level was determined by western blots, using anti-human HPK1 polyclonal antibody from CST (4472). Proteins were loaded into each well of the pre-casting gels and subjected to electrophoretic separation by SDS-PAGE. The protein resolved by SDS-PAGE were transferred to PVDF, blocked by 5% skim milk and probed with anti-human HPK1 antibody or β-actin antibody from CST (3700S), using following standard western blotting procedure.

IC50 (HPK1 p-SLP-76) [nM] | IC50 (HPK1 protein [1]) [nM] | Dmax (HPK1 protein [2]) [%] | Compound
300 to 3000 | ≤ 10 |  | Cn1nc(C2CCC(=O)NC2=O)c2ccc(C3CCN(CCCN4CCN(c5cccc(-c6cnc7[nH]cc(C8CC8)c7c6Cl)c5)C(=O)C4)CC3)cc21 (centres unmarked) [Example 92, 3-(6-(1-(3-(4-(3-(4-chloro-3-cyclopropyl-1H-pyrrolo[2,3-b]pyridin-5-yl)phenyl)-3-oxopiperazin-1-yl)propyl)piperidin-4-yl)-1-methyl-1H-indazol-3-yl)piperidine-2,6-dione]
 | 10 to 100 | 80 | CCc1c[nH]c2ncc(-c3cccc(N4CCN(CC(=O)N5CCN(c6cc7c(cc6F)C(=O)N(C6CCC(=O)NC6=O)C7=O)CC5)CC4=O)c3)c(Cl)c12 (centres unmarked) [Example 29, 5-(4-(2-(4-(3-(4-chloro-3-ethyl-1H-pyrrolo[2,3-b]pyridin-5-yl)phenyl)-3-oxopiperazin-1-yl)acetyl)piperazin-1-yl)-2-(2,6-dioxopiperidin-3-yl)-6-fluoroisoindoline-1,3-dione]
 | 10 to 100 | 60 | CCc1c[nH]c2ncc(-c3cccc(N4CCN(CCOCCN5CCN(c6cc7c(cc6F)C(=O)N(C6CCC(=O)NC6=O)C7=O)CC5)CC4=O)c3)c(Cl)c12 (centres unmarked) [Example 33]
 | 100 to 1000 | 50 | O=C1CCC(N2Cc3cc(F)c(N4CCC(CCN5CCN(c6cccc(-c7cnc8[nH]cc(C9CC9)c8c7Cl)c6)C(=O)C5)CC4)cc3C2=O)C(=O)N1 (centres unmarked) [Example 61]
 | 10 to 100 | 60 | CCc1c[nH]c2ncc(-c3cccc(N4CCN(CCCCNc5ccc6c(c5)C(=O)N(C5CCC(=O)NC5=O)C6=O)CC4=O)c3)c(Cl)c12 (centres unmarked) [Example 59]
 | 10 to 100 | 95 | O=C1CCC(N2Cc3cc(N4CCC(CCN5CCN(c6cccc(-c7cnc8[nH]cc(C9CC9)c8c7Cl)c6)C(=O)C5)CC4)c(F)cc3C2=O)C(=O)N1 (centres unmarked) [Example 62, 3-(5-(4-(2-(4-(3-(4-chloro-3-cyclopropyl-1H-pyrrolo[2,3-b]pyridin-5-yl)phenyl)-3-oxopiperazin-1-yl)ethyl)piperidin-1-yl)-6-fluoro-1-oxoisoindolin-2-yl)piperidine-2,6-dione]
 | 10 to 100 | 91 | CCc1c[nH]c2ncc(-c3cccc(N4CCN(CCC(=O)N5CCN(c6ccc7c(c6)C(=O)N(C6CCC(=O)NC6=O)C7=O)CC5)CC4=O)c3)c(Cl)c12 (centres unmarked) [Example 24]
 | 10 to 100 | 95 | CCc1c[nH]c2ncc(-c3cccc(N4CCN(CCCN5CCN(c6ccc7c(c6)C(=O)N(C6CCC(=O)NC6=O)C7=O)CC5)CC4=O)c3)c(Cl)c12 (centres unmarked) [Example 27]
 | 100 to 1000 |  | CCc1c[nH]c2ncc(-c3cccc(N4CCN(C(=O)CCCCCCCN(C)c5cccc6c5CN(C5CCC(=O)NC5=O)C6=O)CC4=O)c3)c(Cl)c12 (centres unmarked) [Example 11, 3-(4-((8-(4-(3-(4-chloro-3-ethyl-1H-pyrrolo[2,3-b]pyridin-5-yl)phenyl)-3-oxopiperazin-1-yl)-8-oxooctyl)(methyl)amino)-1-oxoisoindolin-2-yl)piperidine-2,6-dione]
 | 10 to 100 |  | CCc1c[nH]c2ncc(-c3cccc(N4CCN(CCNc5ccc6c(c5)C(=O)N(C5CCC(=O)NC5=O)C6=O)CC4=O)c3)c(Cl)c12 (centres unmarked) [Example 60, 5-((2-(4-(3-(4-chloro-3-ethyl-1H-pyrrolo[2,3-b]pyridin-5-yl)phenyl)-3-oxopiperazin-1-yl)ethyl)amino)-2-(2,6-dioxopiperidin-3-yl)isoindoline-1,3-dione]
 | 10 to 100 |  | CCc1c[nH]c2ncc(-c3cccc(N4CCN(C(=O)CCCCCOc5cccc6c5CN(C5CCC(=O)NC5=O)C6=O)CC4=O)c3)c(Cl)c12 (centres unmarked) [Example 5, 3-(4-((6-(4-(3-(4-chloro-3-ethyl-1H-pyrrolo[2,3-b]pyridin-5-yl)phenyl)-3-oxopiperazin-1-yl)-6-oxohexyl)oxy)-1-oxoisoindolin-2-yl)piperidine-2,6-dione]
 | 100 to 1000 | 0 | O=C1CCC(N2Cc3cc(N4CCC(OCC(=O)N5CCN(c6cccc(-c7cnc8[nH]cc(C#Cc9ccccn9)c8c7Cl)c6)C(=O)C5)CC4)ccc3C2=O)C(=O)N1 (centres unmarked) [Example 57, 3-(5-(4-(2-(4-(3-(4-chloro-3-(pyridin-2-ylethynyl)-1H-pyrrolo[2,3-b]pyridin-5-yl)phenyl)-3-oxopiperazin-1-yl)-2-oxoethoxy)piperidin-1-yl)-1-oxoisoindolin-2-yl)piperidine-2,6-dione]
 | 10 to 100 |  | CCc1c[nH]c2ncc(-c3cccc(N4CCN(C(=O)CCCCCNc5ccc6c(c5)C(=O)N(C5CCC(=O)NC5=O)C6=O)CC4=O)c3)c(Cl)c12 (centres unmarked) [Example 19, 5-((6-(4-(3-(4-chloro-3-ethyl-1H-pyrrolo[2,3-b]pyridin-5-yl)phenyl)-3-oxopiperazin-1-yl)-6-oxohexyl)amino)-2-(2,6-dioxopiperidin-3-yl)isoindoline-1,3-dione]
 | 100 to 1000 |  | CCc1c[nH]c2ncc(-c3cccc(N4CCN(C(=O)CCCCCCCOc5cccc6c5CN(C5CCC(=O)N(C)C5=O)C6=O)CC4=O)c3)c(Cl)c12 (centres unmarked) [Example 2, 3-(4-((8-(4-(3-(4-chloro-3-ethyl-1H-pyrrolo[2,3-b]pyridin-5-yl)phenyl)-3-oxopiperazin-1-yl)-8-oxooctyl)oxy)-1-oxoisoindolin-2-yl)-1-methylpiperidine-2,6-dione]

Compound | IC50 (HPK1 p-SLP-76) [nM] | IC50 (HPK1 protein [1]) [nM] | Dmax (HPK1 protein [2]) [%]
O=C1CCC(c2ccc(N3CCN(CCCN4CCN(c5cccc(-c6cnc7[nH]cc(C8CC8)c7c6Cl)c5)C(=O)C4)CC3)cc2)C(=O)N1 (centres unmarked) [Example 75, 3-(4-(4-(3-(4-(3-(4-chloro-3-cyclopropyl-1H-pyrrolo[2,3-b]pyridin-5-yl)phenyl)-3-oxopiperazin-1-yl)propyl)piperazin-1-yl)phenyl)piperidine-2,6-dione] |  | ≤ 10 | 55
CCc1c[nH]c2ncc(-c3cccc(N4CCN(C(=O)CCCOc5cccc6c5CN(C5CCC(=O)NC5=O)C6=O)CC4=O)c3)c(Cl)c12 (centres unmarked) [Example 4, 3-(4-(4-(4-(3-(4-chloro-3-ethyl-1H-pyrrolo[2,3-b]pyridin-5-yl)phenyl)-3-oxopiperazin-1-yl)-4-oxobutoxy)-1-oxoisoindolin-2-yl)piperidine-2,6-dione] |  | 10 to 100 | 
